US9394331B2, “2′-spiro-nucleosides and derivatives thereof useful for treating hepatitis C virus and dengue virus infections” (priority 2010, dated 2016)
Where two headings read alike, the source gives them in different places.

Experiments:
[1] = tested on: Dengue 2 strain New Guinea C; assay: Dengue CPE assay; type: cell-based, Dengue virus 2; conditions: Table 6, BHK-21 cells, 3 days, 50% cells surviving, read-out: EC50, activity against dengue virus
Method: Dengue CPE Assay. To measure cytopathic effect of Dengue virus 2, BHK-21 ([…], CCL-10 ATCC Manassas, Va.) cells were seeded at a density of 20,000 cells/well in a 96-well black/clear bottom plates (Becton Dickinson, Franklin Lakes, N.J.) one day prior to start of the assay and allowed to attach overnight in EMEM (ATCC Manassas, Va.) +10% FBS (Invitrogen, Carlsbad, Calif.) at 37° C. in a humidified 5% CO2 atmosphere. The next day, the medium was removed and the cells were infected with Dengue 2 strain New Guinea C (VR-1584, ATCC Manassas, Va.) at an MOI of 0.08 pfu/cell for two hours in 50 μL EMEM+2% FBS. For both the single point and dose response assays, compounds (2× concentration) were diluted in EMEM+2% FBS and 50 μL was added to infected cells without removing virus. Cells were incubated for 3 days at 37° C. in a humidified 5% CO2 atmosphere. The medium was aspirated and 50 μL of CellTiter-Glo (Promega, Madison, Wis.) was added to each well and read for 0.1 seconds on a Perkin Elmer Victor3 (Waltham, Mass.) plate reader. Percent survival was determined by subtracting the average value of infected control wells and normalizing to the non-infected wells. The effective concentration was calculated from the dose response data by forecasting 50% cells surviving with drug treatment.

[2] = Cytotoxicity reported with the dengue assay; type: cell-based; conditions: Table 6; cell line not stated
[3] = tested on: Huh7, HepG2, BxPC3, or CEM cells; assay: Cell cytotoxicity assay (MTS); type: cell-based; conditions: Table 3; cell line not stated
Method: (§1) Cell cytotoxicity assays. Each compound (serially diluted from 100 μM) was added to Huh7 (2×10^3 cells/well), HepG2 (2×10^3 cells/well), BxPC3 (2×10^3 cells/well), or CEM (5×10^3 cells/well) cells and allowed to incubate for 8 days at 37° C. A medium only control was used to determine the minimum absorbance value […]. At the end of the growth period, MTS dye from the CellTiter 96 Aqueous One Solution Cell Proliferation Assay kit (Promega) was added to each well and the plate was incubated for an additional 2 hours. The absorbance at 490 nm was read with a Victor3 plate reader (Perkin Elmer) using the medium only control wells as blanks. The 50% inhibition value (CC50) was determined by comparing the absorbance in wells containing cells and test compound to untreated cell control wells.

[4] = tested on: HCV replicon; assay: HCV replicon assay (Clone A cells and ET-lunet cells, HCV RNA by real time PCR); type: cell-based, hepatitis C virus; conditions: Table 3, HCV 1b replicon; for EC50: read-out: EC50, anti-HCV 1b activity; for EC90: read-out: EC90, anti-HCV 1b activity
Method: HCV replicon assay. HCV replicon assays using Clone A cells and ET-lunet cells were performed as described previously. L. J. Stuyver et al. Antimicrob. Agents Chemother. 2004, 48, 651-654. Briefly, Clone A cells and ET-lunet cells were seeded at a density of 1500 and 3000 cells per well in a 96-well plate, respectively. Test compounds serially diluted in culture medium without G418 were added to cells. Plates were incubated at 37° C. in a 5% CO2 atmosphere for 4 days. Inhibition of HCV RNA replication was determined by quantitative real time PCR. See, e.g., L. J. Stuyver et al. Antiviral Chem. Chemother. 2006, 17, 79-87.
To express the antiviral effectiveness of a compound, the threshold RT-PCR cycle of the test compound was subtracted from the average threshold RT-PCR cycle of the no-drug control (ΔCtHCV). A ΔCt of 3.3 equals a 1-log 10 reduction (equal to the 90% effective concentration [EC90]) in replicon RNA levels. The cytotoxicity of the test compound could also be expressed by calculating the ΔCtrRNA values. The ΔΔCt specificity parameter could then be introduced (ΔCtHCV-ΔCtrRNA), in which the levels of HCV RNA are normalized for the rRNA levels and calibrated against the no-drug control.

[5] = molecular target: wild type NS5B Genotype 1b (Hepatitis C virus genotype 1b (isolate Con1) (HCV), UniProt Q9WMX2); assay: HCV NS5B polymerase reaction, wild type; type: biochemical; conditions: Table 5, nucleoside triphosphates
Chain of wild type NS5B Genotype 1b (Q9WMX2 2420-3010): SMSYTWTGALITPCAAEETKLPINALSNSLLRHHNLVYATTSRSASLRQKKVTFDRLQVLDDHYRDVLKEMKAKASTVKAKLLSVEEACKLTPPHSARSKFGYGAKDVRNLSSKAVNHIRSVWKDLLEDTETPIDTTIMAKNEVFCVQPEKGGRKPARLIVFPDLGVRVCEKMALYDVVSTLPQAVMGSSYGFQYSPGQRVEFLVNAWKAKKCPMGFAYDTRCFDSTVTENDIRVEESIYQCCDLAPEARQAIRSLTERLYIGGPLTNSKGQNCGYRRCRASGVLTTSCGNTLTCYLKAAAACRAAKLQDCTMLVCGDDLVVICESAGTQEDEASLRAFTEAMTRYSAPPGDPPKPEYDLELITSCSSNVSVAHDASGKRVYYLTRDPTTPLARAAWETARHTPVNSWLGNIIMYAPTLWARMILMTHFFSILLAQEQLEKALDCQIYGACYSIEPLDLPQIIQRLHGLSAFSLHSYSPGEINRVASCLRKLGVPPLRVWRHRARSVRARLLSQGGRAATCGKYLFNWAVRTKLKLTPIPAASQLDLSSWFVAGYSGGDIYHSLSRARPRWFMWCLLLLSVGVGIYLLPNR

[6] = molecular target: S282T NS5B Genotype 1b (Hepatitis C virus genotype 1b (isolate Con1) (HCV), UniProt Q9WMX2, S2701T); assay: HCV NS5B polymerase reaction, S282T mutant; type: biochemical; conditions: Table 5, nucleoside triphosphates
Chain of S282T NS5B Genotype 1b (Q9WMX2 2420-3010 S2701T): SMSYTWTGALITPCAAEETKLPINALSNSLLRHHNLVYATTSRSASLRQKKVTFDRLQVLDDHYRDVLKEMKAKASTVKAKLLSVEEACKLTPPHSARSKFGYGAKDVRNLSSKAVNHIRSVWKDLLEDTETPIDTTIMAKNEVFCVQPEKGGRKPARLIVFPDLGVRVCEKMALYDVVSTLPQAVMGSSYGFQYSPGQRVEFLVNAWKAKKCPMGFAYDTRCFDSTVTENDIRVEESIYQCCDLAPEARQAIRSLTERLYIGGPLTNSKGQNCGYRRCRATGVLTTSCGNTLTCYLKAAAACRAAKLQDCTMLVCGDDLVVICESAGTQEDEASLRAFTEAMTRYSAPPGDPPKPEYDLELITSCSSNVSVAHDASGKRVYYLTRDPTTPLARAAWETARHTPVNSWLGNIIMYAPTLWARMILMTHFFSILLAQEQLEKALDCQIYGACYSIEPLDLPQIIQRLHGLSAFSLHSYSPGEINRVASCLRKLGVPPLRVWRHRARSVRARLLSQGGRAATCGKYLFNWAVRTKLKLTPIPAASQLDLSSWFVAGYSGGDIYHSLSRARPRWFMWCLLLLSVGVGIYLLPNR
Method: The HCV NS5B reaction was performed in a 20 μL mixture containing varying concentrations of the test compound, 1 μM of all four natural ribonucleotides, [α-^32P]UTP, 20 ng/μL of genotype 1b (−) IRES RNA template, 1 unit/μL of SUPERase•In (Ambion, Austin, Tex.), 40 ng/μL of wild type or S282T NS5B Genotype 1b, 1 mM MgCl2, 0.75 mM MnCl2, and 2 mM DTT in 50 mM Hepes buffer (pH 7.5). The reaction was quenched by adding 80 μL of stop solution (12.5 mM EDTA, 2.25 M NaCl, and 225 mM sodium citrate) after incubating at 27° C. for 30 minutes. The radioactive RNA products were separated from unreacted substrates by passing the quenched reaction mixture through a Hybond N+ membrane (GE Healthcare, Piscataway, N.J.) using a dot-blot apparatus. The RNA products were retained on the membrane and the free nucleotides were washed out. The membrane was washed 4 times with a solution containing 0.6 M NaCl and 60 mM sodium citrate. After rinsing the membrane with water followed by ethanol, the membrane was exposed to a phosphorscreen and the products were visualized and quantified using a phosphorimager. The IC50 values were calculated using GraFit program version 5 (Erithacus Software, Horley, Surrey, UK). All the reactions were done in duplicate and the results were reported as IC50±standard error.

[7] = Cell cytotoxicity assay (MTS); type: cell-based; conditions: human; Table 3; cell line not stated; read-out: CC50
Method: as §1

Row | Structure (SMILES) | EC50 ([1]; Dengue virus, BHK-21, 72 h) [µM] | CC50 [2] [µM] | CC50 [3] [µM] | EC50 [4] [µM] | EC90 [4] [µM] | IC50 [5] [µM] | CC50 at 8 days [7] [µM] | EC50 [1] [µM] | other results
1 | COc1nc(N)nc2c1ncn2C1OC(COP(=O)(N[C@@H](C)C(=O)OC(C)C)Oc2ccccc2)[C@@H](O)[C@]12CCO2 (stereo partly drawn) [compound 119] | 8.64 | > 20 | > 20 | 4.52 | > 20 | – | – | – | –
2 | O=c1ccn(C2OC(CO)[C@@H](O)[C@]23CCO3)c(=O)[nH]1 (stereo partly drawn) [compound 136] | – | – | – | – | – | 39.4 | – | – | IC50 [6]: > 100 µM
3 | Nc1ccn(C2OC(CO)[C@@H](O)[C@]23CCO3)c(=O)n1 (stereo partly drawn) [compound 140] | – | – | – | – | – | > 8.48 | – | – | IC50 [6]: 56.7 µM
4 | COc1nc(N)nc2c1ncn2C1OC(COP(=O)(N[C@@H](C)C(=O)OCC(C)(C)C)Oc2ccccc2)[C@@H](O)[C@]12CCO2 (stereo partly drawn) [compound 120] | 1.88 | > 20 | – | 0.39 | 0.676 | – | > 20 | – | –
5 | COc1nc(N)nc2c1ncn2C1OC(COP(=O)(N[C@@H](C)C(=O)OC2CCCC2)Oc2ccccc2)[C@@H](O)[C@]12CCO2 (stereo partly drawn) [compound 129] | – | > 20 | > 20 | 0.67 | 1.97 | – | – | 2.36 | –
6 | COc1nc(N)nc2c1ncn2C1OC(COP(=O)(N[C@@H](C)C(=O)OC(C)C)Oc2ccccc2)[C@@H](O)[C@]12CCO2 (stereo partly drawn) [compound 118] | – | > 20 | – | 1.49 | 3.44 | – | > 20 | 5.06 | –
7 | COc1nc(N)nc2c1ncn2C1OC(COP(=O)(N[C@@H](C)C(=O)OCC(C)(C)C)Oc2cccc3ccccc23)[C@@H](O)[C@]12CCO2 (stereo partly drawn) [compound 123] | 1.74 | > 20 | – | – | – | – | > 20 | – | EC50 ([4]; Hepatitis C virus): 0.31 µM; EC90 ([4]; Hepatitis C virus): 0.853 µM
8 | CCCCOC(=O)[C@H](C)NP(=O)(OCC1OC(n2cnc3c(OC)nc(N)nc32)[C@@]2(CCO2)[C@@H]1O)Oc1ccccc1 (stereo partly drawn) [compound 126] | 2.36 | > 20 | – | 0.274 | 0.7 | – | > 20 | – | –
9 | COc1nc(N)nc2c1ncn2C1OC(COP(=O)(N[C@@H](C)C(=O)OCC(C)C)Oc2ccccc2)[C@@H](O)[C@]12CCO2 (stereo partly drawn) [compound 125] | – | > 20 | > 20 | 4.42 | 8.45 | – | – | 1.98 | –
10 | CCCCOC(=O)[C@H](C)NP(=O)(OCC1OC(n2cnc3c(OC)nc(N)nc32)[C@@]2(CCO2)[C@@H]1O)Oc1ccccc1 (stereo partly drawn) [compound 127] | – | > 20 | > 20 | 3.1 | 6.45 | – | – | 1.61 | –
11 | COc1nc(N)nc2c1ncn2C1OC(COP(=O)(N[C@@H](C)C(=O)OCc2ccccc2)Oc2ccccc2)[C@@H](O)[C@]12CCO2 (stereo partly drawn) [compound 131] | – | > 20 | > 20 | 11.7 | > 20 | – | – | 1.49 | –
12 | COc1nc(N)nc2c1ncn2C1OC(COP(=O)(N[C@@H](C)C(=O)OC2CCCC2)Oc2ccccc2)[C@@H](O)[C@]12CCO2 (stereo partly drawn) [compound 128] | 2.79 | > 20 | – | – | – | – | > 20 | – | EC50 ([4]; Hepatitis C virus): 0.45 µM; EC90 ([4]; Hepatitis C virus): 1.09 µM
13 | Nc1ccn(C2OC(CO)[C@@H](O)[C@@]23CCCO3)c(=O)n1 (stereo partly drawn) [compound 138] | – | – | – | – | – | > 100 | – | – | –
14 | COc1nc(N)nc2c1ncn2C1OC(COP(=O)(N[C@@H](C)C(=O)OCC(C)(C)C)Oc2ccccc2)[C@@H](O)[C@]12CCO2 (stereo partly drawn) [compound 121] | – | > 20 | > 20 | 9.31 | 18.5 | – | – | 2.26 | –
15 | Nc1ccn(C2OC(CO)[C@@H](O)[C@@]23CCO3)c(=O)n1 (stereo partly drawn) [compound 139] | – | – | – | – | – | > 100 | – | – | –
16 | CCOC(=O)[C@H](C)NP(=O)(OCC1OC(n2cnc3c(OC)nc(N)nc32)[C@@]2(CCO2)[C@@H]1O)Oc1ccccc1 (stereo partly drawn) [compound 122] | 5.84 | > 20 | – | – | – | – | > 20 | – | EC50 ([4]; Hepatitis C virus): 0.857 µM; EC90 ([4]; Hepatitis C virus): 3 µM
17 | Nc1ccn(C2OC(CO)[C@@H](O)[C@]23CCCO3)c(=O)n1 (stereo partly drawn) [compound 137] | – | – | – | – | – | > 45.3 | – | – | IC50 [6]: > 100 µM
18 | O=c1ccn(C2OC(CO)[C@@H](O)[C@@]23CCCO3)c(=O)[nH]1 (stereo partly drawn) [compound 135] | – | – | – | – | – | > 100 | – | – | –
